# Data reported in ChEMBL document CHEMBL1201862, “PubChem BioAssay data set” (2004).
#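 Test compounds were applied to cells in 96-well plates for 48 hours at 5 doses. The concentration for 50% growth inhibition is given as GI50.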 Calls of active or inactive are those of the source. No stated cut-off is given here; in the data, active = GI50 up to about 1.1 µM and inactive = higher.
# Columns and labels:
# Assay in all cases: growth of human tumour cells (NCI), 48 h
# MCF7 = tested on: MCF7
# DMS-273 = tested on: DMS-273
# XF498 = tested on: XF498
# DMS-114 = tested on: DMS-114
# KM-20L2 = tested on: KM-20L2
# HOP-18 = tested on: HOP-18
# DLD-1 = tested on: DLD-1
# M19-MEL = tested on: M19-MEL
# RXF 631 = tested on: RXF 631
SMILES,GI50 (MCF7),GI50 (DMS-273),GI50 (KM-20L2),GI50 (DLD-1),also measured
OCCCCCNc1nc(O)c2[nH]cnc2n1,> 10 µM (inactive),–,–,–,–
Cc1nc(-c2ccc(/N=C/c3ccc(N(CCOS(C)(=O)=O)CCOS(C)(=O)=O)cc3C)cc2)cs1,2.44 µM (inactive),–,–,–,–
Cn1nc(N)nc1N=S(C)(C)=N,–,> 100 µM (inactive),> 100 µM (inactive),–,GI50 (XF498): > 100 µM (inactive); GI50 (DMS-114): > 100 µM (inactive); GI50 (HOP-18): > 100 µM (inactive)
O=c1[nH]c(=O)n(CCOc2ccc(Cl)cc2)cc1Nc1ccccc1,> 100 µM (inactive),–,–,–,–
COC(=O)c1nn(C(=N)c2ccc(Cl)cc2)c2c1CCC2,–,> 100 µM (inactive),> 100 µM (inactive),> 100 µM (inactive),GI50 (XF498): > 100 µM (inactive); GI50 (DMS-114): > 100 µM (inactive); GI50 (M19-MEL): > 100 µM (inactive)
c1cc2c(cc1C1OCC3C(c4ccc5c(c4)OCO5)OCC13)OCO2 (stereo not given),–,–,35.8 µM (inactive),65.3 µM (inactive),GI50 (XF498): 28.8 µM (inactive); GI50 (DMS-114): 40.4 µM (inactive); GI50 (M19-MEL): 51.2 µM (inactive); GI50 (HOP-18): > 100 µM (inactive)
CCC(CCN)(CCN)[N+](=O)[O-],> 100 µM (inactive),–,–,–,–
O=C1C(=O)N(c2cc(Cl)ccc2Cl)C(=O)C(=O)C1c1nc2ccccc2s1,–,> 100 µM (inactive),> 100 µM (inactive),> 100 µM (inactive),GI50 (XF498): > 100 µM (inactive); GI50 (DMS-114): > 100 µM (inactive); GI50 (M19-MEL): > 100 µM (inactive)
COc1cccc(/C=C2\N=C(c3ccccc3)OC2=O)c1,> 100 µM (inactive),–,–,–,–
c1ccc(CNCCCNCCCCNCCCNCc2ccccc2)cc1,3.21 µM (inactive),–,–,–,–
CC(=O)N[C@@H](Cc1ccc(O)cn1)C(=O)NCc1ccc(Cl)cc1,> 100 µM (inactive),–,–,–,–
COc1ccc(C)cc1NC(=S)N/N=C/c1ccc(SC)cc1,> 100 µM (inactive),–,–,–,–
N#CCCN(CCCN(C(=O)Nc1ccc(NC(=O)N(CCCN(CCC#N)C(N)=O)c2ccccc2)cc1)c1ccccc1)C(N)=O,4.72 µM (inactive),–,–,–,–
N=C(N)NS(=O)(=O)c1ccc(/N=N/c2c(O)c(C(=O)O)cc3ccccc23)cc1,> 100 µM (inactive),–,–,–,–
O=C1/C(=C/c2ccc(Br)s2)NC(=S)N1CN1CCOCC1,25.1 µM (inactive),–,–,–,–
C=C(C)C(=O)N1c2ccc(OC)cc2CC1C(=O)OCC (stereo not given),> 100 µM (inactive),–,–,–,–
O=C1c2ccccc2C(=O)c2sc(Nc3ccc(Cl)cc3)nc21,–,1.97 µM (inactive),13.5 µM (inactive),1.78 µM (inactive),GI50 (XF498): 2.16 µM (inactive); GI50 (DMS-114): 1.82 µM (inactive); GI50 (M19-MEL): 0.388 µM (active); GI50 (HOP-18): 2.24 µM (inactive)
CC(C)(C)NC(=O)N1N=C(c2ccccc2)C1c1ccccc1 (stereo not given),41.7 µM (inactive),–,–,–,–
COC1=C(OC)CCC(/C(C#N)=C/c2ccc(OC)c(OC)c2)=C1,–,49.8 µM (inactive),> 100 µM (inactive),> 100 µM (inactive),GI50 (RXF 631): > 100 µM (inactive); GI50 (DMS-114): 31.6 µM (inactive); GI50 (M19-MEL): > 100 µM (inactive); GI50 (HOP-18): > 100 µM (inactive)
CC(=O)c1ccc(N2CCN(C3=C(Cl)C(=O)c4c(O)ccc(O)c4C3=O)CC2)cc1,1.49 µM (inactive),–,–,–,–
CN(C)c1ccc(C(=O)NCCCCCCC(=O)NO)cc1,0.237 µM (active),–,–,–,–
NNc1ccccc1Cl,> 100 µM (inactive),–,–,–,–

SMILES,GI50 (MCF7),GI50 (DMS-273),GI50 (KM-20L2),GI50 (DLD-1),also measured
Cc1ccccc1NC(=O)C(=O)CC(=O)c1sc(-n2nc(-c3ccccc3)cc2-c2ccccc2)nc1C,–,> 100 µM (inactive),> 100 µM (inactive),> 100 µM (inactive),GI50 (RXF 631): > 100 µM (inactive); GI50 (DMS-114): > 100 µM (inactive); GI50 (M19-MEL): > 100 µM (inactive)
Cc1ccc(Nc2nc3[nH]ccc3c(=O)[nH]2)cc1,> 100 µM (inactive),–,–,–,–
COC(=O)CC1NC(=O)[C@@H]1C(C)O (stereo not given in full),–,> 100 µM (inactive),> 100 µM (inactive),> 10 µM (inactive),GI50 (XF498): > 100 µM (inactive); GI50 (DMS-114): > 100 µM (inactive); GI50 (M19-MEL): > 100 µM (inactive)
COc1cc2c[n+](C)c3c4cc(OC)c(OC(C)C)cc4ccc3c2cc1OC,–,27.2 µM (inactive),62.7 µM (inactive),> 100 µM (inactive),GI50 (DMS-114): 5.85 µM (inactive); GI50 (M19-MEL): 18.4 µM (inactive); GI50 (HOP-18): 49.7 µM (inactive)
O=C1C[C@@H](c2ccccc2)O[C@@H](c2ccccc2)C1,> 100 µM (inactive),–,–,–,–
CCC/C(Cl)=N\OC(=O)Nc1cccc(C(F)(F)F)c1,14 µM (inactive),–,–,–,–
Brc1c2nc3ccccc3nc2n2ccc3ccccc3c12,–,> 100 µM (inactive),> 100 µM (inactive),> 100 µM (inactive),GI50 (XF498): > 100 µM (inactive); GI50 (DMS-114): > 100 µM (inactive); GI50 (M19-MEL): > 100 µM (inactive)
C=CCN(c1cc(OCc2ccccc2)c2c(c(C)cn2S(=O)(=O)c2ccc([N+](=O)[O-])cc2)c1[N+](=O)[O-])S(C)(=O)=O,> 100 µM (inactive),–,–,–,–
O=c1c2ccccc2n2nnc3ccc(NCCCNCCNCCCNc4ccc5nnn6c7ccccc7c(=O)c4c56)c1c32,0.447 µM (active),–,–,–,–
COC(OC)C1OCC(n2cc(F)c(=O)[nH]c2=O)C1O (stereo not given),> 100 µM (inactive),–,–,–,–
O=C(CNc1ccc([N+](=O)[O-])cc1)Nn1c(-c2ccccc2)nc2ccccc2c1=O,2.52 µM (inactive),–,–,–,–
O[C@@H]1C[C@H](Cl)c2c(Cl)sc(Cl)c21,13 µM (inactive),–,–,–,–
CN/C(N)=N/N=C1/C(=O)Nc2ccccc21,> 100 µM (inactive),–,–,–,–
Cn1c(=O)cc(NCc2ccc(Cl)cc2)[nH]c1=O,31.9 µM (inactive),–,–,–,–
COC(=O)C(CC(=O)c1c[nH]c2ccccc12)c1c[nH]c2ccccc12 (stereo not given),–,13.5 µM (inactive),17.9 µM (inactive),30.8 µM (inactive),GI50 (RXF 631): 15.8 µM (inactive); GI50 (XF498): 17.9 µM (inactive); GI50 (DMS-114): 15.8 µM (inactive); GI50 (M19-MEL): > 10 µM (inactive)
C=CC(c1ccccc1)C1(O)c2cccc(O)c2C(=O)c2c(O)cccc21 (stereo not given),17.1 µM (inactive),–,–,–,–
CSCCC(NC(c1ccccc1)c1ccccc1)[PH](=O)O (stereo not given),> 100 µM (inactive),–,–,–,–
CCC(O)(c1ccc(OC)cc1)C(c1ccc(OCc2ccccc2)cc1)c1ccc(OCc2ccccc2)cc1 (stereo not given),–,> 100 µM (inactive),> 100 µM (inactive),> 100 µM (inactive),GI50 (RXF 631): > 100 µM (inactive); GI50 (XF498): > 100 µM (inactive); GI50 (DMS-114): > 100 µM (inactive); GI50 (M19-MEL): > 100 µM (inactive)
CN(C)CCCOc1ccc(/C=C2/CCC/C(=C/c3ccc(OCCCN(C)C)cc3)C2=O)cc1,–,1.45 µM (inactive),0.232 µM (active),1.5 µM (inactive),GI50 (DMS-114): 1.56 µM (inactive); GI50 (HOP-18): 3.61 µM (inactive)
CCCOc1nc(N)c2cnn(C3CCCCO3)c2n1 (stereo not given),–,> 100 µM (inactive),> 100 µM (inactive),> 100 µM (inactive),GI50 (DMS-114): > 100 µM (inactive); GI50 (M19-MEL): > 100 µM (inactive); GI50 (HOP-18): 68.9 µM (inactive)
COc1ccc(N2C(=O)CS(=O)(=O)C2c2cccc(Oc3ccccc3)c2)cc1 (stereo not given),1.87 µM (inactive),–,–,–,–
CC(C)(C)C(=O)/C=C/c1cccc(Oc2ccccc2)c1,–,–,14.3 µM (inactive),11.5 µM (inactive),GI50 (RXF 631): 28.1 µM (inactive); GI50 (XF498): 18.8 µM (inactive); GI50 (M19-MEL): 16.9 µM (inactive); GI50 (HOP-18): 16.6 µM (inactive)

SMILES,GI50 (MCF7),GI50 (DMS-273),GI50 (KM-20L2),GI50 (DLD-1),also measured
CCOC(=O)[C@@]12C3C=CC(CC3)[C@]1(C(=O)c1ccccc1)C(=O)C(=O)N2c1ccccc1 (stereo not given in full),> 100 µM (inactive),–,–,–,–
CN(c1n[n+]2c(-c3ccccc3)csc2s1)c1n[n+]2c(-c3ccccc3)csc2s1,–,> 100 µM (inactive),> 100 µM (inactive),> 100 µM (inactive),GI50 (XF498): > 100 µM (inactive); GI50 (DMS-114): 59.6 µM (inactive); GI50 (M19-MEL): > 100 µM (inactive); GI50 (HOP-18): > 100 µM (inactive)
CCCCN/C(=N\C#N)N(Cc1ccccc1)Cc1ccccc1,–,16.1 µM (inactive),20.8 µM (inactive),19.1 µM (inactive),GI50 (M19-MEL): 18.1 µM (inactive); GI50 (HOP-18): 39.8 µM (inactive)
O=C1/C(=C\c2ccco2)Oc2ccccc21,29.4 µM (inactive),–,–,–,–
CCCCCCCCCCCCCCCC(=O)OC(COC(C)=O)CO[PH](=O)O (stereo not given),> 100 µM (inactive),–,–,–,–
C[n+]1c2ccccc2c(CNC(CCC(N)=O)C(=O)O)c2ccccc21 (stereo not given),1.02 µM (active),1.21 µM (inactive),1.1 µM (active),0.475 µM (active),GI50 (XF498): 2 µM (inactive); GI50 (DMS-114): 0.577 µM (active); GI50 (M19-MEL): 2.18 µM (inactive); GI50 (HOP-18): 2.09 µM (inactive)
CSc1nc(C)cc(Nc2ccc(O)c(CN3CCOCC3)c2)n1,> 100 µM (inactive),–,–,–,–
COC1[C@@H](OC(C)=O)[C@@H](NC(=O)C(Cl)(Cl)Cl)C(I)[C@@H](N2C(=O)c3ccccc3C2=O)[C@H]1OC (stereo not given in full),–,> 100 µM (inactive),> 100 µM (inactive),> 100 µM (inactive),GI50 (DMS-114): > 100 µM (inactive); GI50 (HOP-18): > 100 µM (inactive)
O=C(CN1CCN(c2ccccn2)CC1)N1CCCn2c1nc1ccccc1c2=O,> 100 µM (inactive),–,–,–,–
CC(C)(C)[Si](C)(C)O/N=C\c1cccc(O[Si](C)(C)C(C)(C)C)c1,–,17.7 µM (inactive),20.1 µM (inactive),17.8 µM (inactive),GI50 (XF498): 18.5 µM (inactive); GI50 (DMS-114): 18.8 µM (inactive); GI50 (M19-MEL): 17.8 µM (inactive); GI50 (HOP-18): 22.5 µM (inactive)
S=C(S)NCC1CCC(CNC(=S)S)CC1 (stereo not given),17.9 µM (inactive),–,–,–,–
Cc1ccc2c(n1)C(=O)C=CC2=O,5.33 µM (inactive),–,–,–,–
CCOC(=O)c1c(-c2ccc(OC)cc2)ccn1C,> 10 µM (inactive),–,–,–,–
O=C1CCCCCCCCCCC(=O)C2CCOCCOCCOCCC1Cc1cccc(n1)C2,–,54.5 µM (inactive),> 100 µM (inactive),> 100 µM (inactive),GI50 (RXF 631): 80.4 µM (inactive); GI50 (XF498): 59.7 µM (inactive); GI50 (DMS-114): 77.6 µM (inactive); GI50 (M19-MEL): > 100 µM (inactive)
O=[N+]([O-])c1ccc2nc(O)c(/C=C(\O)c3ccccc3)nc2c1,13.4 µM (inactive),–,–,–,–
O=C(O)C1C(C(=O)O)C(C(=O)O)C1C(=O)O (stereo not given),> 100 µM (inactive),–,–,–,–
CN(C)CCNC(=O)C(C)(C)Oc1ccc(C(=O)c2ccc(Cl)cc2)cc1Cl,8.34 µM (inactive),–,–,–,–
CCCc1c(OC)c(=O)c2c(O)cc(OC)c3c4c(OC)cc(O)c5c(=O)c(OC)c(CCC)c(c1c23)c54,3.43 µM (inactive),–,–,–,–
COc1ccc(/N=C2\C(=S)N(c3ccc(OC)cc3)/C(=N/S(=O)(=O)c3ccccc3)N2c2ccccc2)cc1,17 µM (inactive),–,–,–,–
C=CCC1(CN(C)C)CC/C(=C\c2ccc3c(c2)OCO3)C1=O (stereo not given),–,47.6 µM (inactive),28.9 µM (inactive),27.7 µM (inactive),GI50 (RXF 631): 25.4 µM (inactive); GI50 (M19-MEL): 39.6 µM (inactive); GI50 (HOP-18): > 100 µM (inactive)
COc1ccccc1N1CCN(CCCNC(=O)c2cc(Cl)c(N)c(Cl)c2)CC1,35.2 µM (inactive),–,–,–,–
